Experimental data taken from patent publication US9006252B2, “Fused multicyclic compounds as protein kinase inhibitors” (National Health Research Institutes, priority 2008, dated 2015).
Values joined by “and” are separate entries in the source; they are usually repeats but may differ in a detail not shown here. Identical values can stand only once. Like-named read-outs stand apart in the source and are kept apart here.

What was measured:
[1] = molecular target: T1, Aurora A (Homo sapiens, UniProt O14965); assay: Aurora Kinase A luminescent kinase assay (Kinase-Glo); type: biochemical; conditions: IC50 values (concentration of a test compound at which activity of 50% of Aurora A is inhibited), GST-tAurora A (123-401aa) fusion protein
T1 construct: GST-tAurora A (123-401aa) fusion protein obtained above; made in house; host or cells: Sf9 insect cells (baculovirus, pBacPAK8)
T1 sequence (O14965 123-401): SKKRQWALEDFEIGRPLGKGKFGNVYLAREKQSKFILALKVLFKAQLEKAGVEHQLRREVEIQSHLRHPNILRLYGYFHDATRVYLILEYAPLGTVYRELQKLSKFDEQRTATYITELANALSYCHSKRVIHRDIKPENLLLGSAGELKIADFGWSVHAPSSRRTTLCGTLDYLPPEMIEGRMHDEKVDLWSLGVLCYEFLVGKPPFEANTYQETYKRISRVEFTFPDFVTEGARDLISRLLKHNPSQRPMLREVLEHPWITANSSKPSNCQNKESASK
Procedure: The Aurora A catalytic domain with an N-terminal GST tag was constructed in pBacPAK8 plasmid and expressed in sf9 cells. […] To concentrate GST-tAurora A, buffer was replaced with Tris buffer (100 mM Tris (pH 7.5), 300 mM NaCl, 1 mM EDTA, 4 mM DTT) using Amicon ultra-15 (MWCO:30K, Millipore) to 2.4 mg/ml. After the addition of equal volume of glycerol and 0.04% Triton X-100, the proteins were stored aliquoted at −80° C.
Briefly, a test compound, enzyme, substrate-tetra(LRRWSLG), DTT and ATP were dissolved in Aur buffer (50 mM Tris-HCl pH 7.4, 10 mM NaCl, 10 mM MgCl2, and 100 μg/ml BSA) individually before the assay. […] 5 μM ATP (5 μl), 1 mM DTT (5 μl) and 0.1 mM tetra(LRRWSLG) peptide substrate (5 μl) were added into the reactions of test compounds and GST-tAurora A. The reactions were incubated at 37° C. for 90 min. 50 μl of Kinase-Glo Plus Reagent (V3771, Promega) was added into the reactions, followed by the incubation at 25° C. for 20 min.

[2] = test system: HCT-116 cells; assay: HCT-116 cell viability, MTS assay; type: cell-based; conditions: Homo sapiens, HCT-116, 96 h, read-out: IC50 values, HCT-116 cell viability
Procedure: HCT-116 cell viability was examined by the MTS assay (Promega, Madison, Wis., USA). 2000 HCT-116 cells in 100 μL McCoy's 5a medium were seeded in each well of a 96-well plate. After 96-h incubation with a test compound, the cells were incubated with 20 μL of a MTS/PMS mixture (MTS/PMS ratio: 20:1) for 2 h at 37° C. in a humidified incubator with 5% CO2 to allow viable cells to convert the tetrazolium salt (MTS) into formazan. The amount/concentration of formazan, which indicates the number of live cells, was determined by measuring the absorbance at 490 nm using a PerkinElmer Victor2 plate reader (PerkinElmer, Shelton, Conn., USA).

Row | SMILES | IC50 [1] | IC50 [2] [nM] | IC50 ([2]; 96-h incubation, MTS) [nM]
1 | CCN(CCO)CCCOc1ccc2c(NCCc3ccc(NC(=O)Nc4ccccc4)cc3)ncnc2c1 [Compound 203] | 51 to 450 nM and < 1000 nM | – | –
2 | COc1cc2ncnc(NCCc3ccc(NC(=O)Nc4ccccc4)cc3)c2cc1OC [Compound 1, 1-(4-(2-(6,7-dimethoxyquinazolin-4-ylamino)ethyl)phenyl)-3-phenylurea] | 1 to 50 nM and < 1000 nM | < 100 | –
3 | COc1cc2ncnc(NCCc3ccc(NC(=O)Nc4ccc(F)cc4)cc3)c2cc1OC [Compound 211] | 1 to 50 nM and < 1000 nM | – | –
4 | COc1cc2ncnc(NCCc3ccc(NC(=O)Nc4cc(F)cc(F)c4)cc3)c2cc1OC [Compound 244] | 1 to 50 nM and < 1000 nM | – | < 100
5 | COc1ccc2c(NCCc3ccc(NC(=O)Nc4ccccc4)cc3)c(C#N)cnc2c1 [Compound 212] | 51 to 450 nM and < 1000 nM | – | 101 to 850
6 | O=C(Nc1ccccc1)Nc1ccc(CCNc2ncnc3oc(-c4ccncc4)nc23)cc1 [Compound 235] | 1 to 50 nM and < 1000 nM | – | –
7 | O=C(Nc1cccc(Cl)c1)Nc1ncc(CCNc2ncnc3oc(-c4ccccc4)nc23)s1 [Compound 242] | 51 to 450 nM and < 1000 nM | – | –
8 | N#Cc1cnc2cc(O)ccc2c1NCCc1ccc(NC(=O)Nc2ccccc2)cc1 [Compound 229] | – | – | 101 to 850
9 | COc1ccc2c(NCCc3ccc(NC(=O)Nc4cccc(Cl)c4)cc3)c(C#N)cnc2c1 [Compound 213] | – | – | 101 to 850
10 | COc1cc2ncnc(NCCc3ccc(NC(=O)Nc4cccnc4)cc3)c2cc1OC [Compound 2, 1-{4-[2-(6,7-Dimethoxy-quinazolin-4-ylamino)-ethyl]-phenyl}-3-pyridin-3-yl-urea] | < 1000 nM and 51 to 450 nM | – | 101 to 850
11 | COc1cc2ncc(C#N)c(NCCc3ccc(NC(=O)Nc4cccc(F)c4)cc3)c2cc1OC [Compound 225] | 51 to 450 nM and < 1000 nM | – | 101 to 850
12 | O=C(Nc1ccccc1)Nc1ccc(CCNc2ncnc3cc(OCCCCl)ccc23)cc1 [Compound 6, 1-(4-{2-[7-(3-Chloro-propoxy)-quinazolin-4-ylamino]-ethyl}-phenyl)-3-phenyl-urea] | < 1000 nM and 51 to 450 nM | – | –
13 | COc1cc2ncnc(NCCc3ccc(NC(=O)Nc4cc(F)cc(F)c4)cc3)c2cc1OC [Compound 245] | 1 to 50 nM and < 1000 nM | – | –
14 | COc1cc2ncc(C#N)c(NCCc3cnc(NC(=O)Nc4ccccc4)s3)c2cc1OC [Compound 227] | 51 to 450 nM and < 1000 nM | – | –
15 | CN(C)CCCOc1ccc2c(NCCc3ccc(NC(=O)Nc4ccccc4)cc3)ncnc2c1 [Compound 202] | 51 to 450 nM and < 1000 nM | – | –
16 | CN(C)CCCOc1ccc2c(NCCc3ccc(NC(=O)Nc4cccc(F)c4)cc3)ncnc2c1 [Compound 207] | < 1000 nM and 51 to 450 nM | – | 101 to 850
17 | COc1cc2ncnc(NCCc3cnc(NC(=O)Nc4cccc(Cl)c4)s3)c2cc1OC [Compound 228] | 1 to 50 nM and < 1000 nM | – | < 100
18 | COc1cc2ncnc(NCCc3cnc(NC(=O)Nc4cccc(F)c4)s3)c2cc1OC [Compound 56] | < 1000 nM and 51 to 450 nM | – | 101 to 850
19 | COc1cc2ncnc(NCCc3cnc(NC(=O)Nc4cccc(Br)c4)s3)c2cc1OC [Compound 252] | 1 to 50 nM and < 1000 nM | – | 101 to 850
20 | COc1cc2ncnc(NCCc3ccc(NC(=O)Nc4ccc(F)cc4)cc3)c2cc1OC [Compound 210] | 1 to 50 nM and < 1000 nM | – | < 100
21 | CCN(CCO)CCCOc1ccc2c(NCCc3ccc(NC(=O)Nc4cccc(F)c4)cc3)ncnc2c1 [Compound 22] | < 1000 nM and 1 to 50 nM | – | 101 to 850
22 | O=C(Nc1ccccc1)Nc1ncc(CCNc2ncnc3oc(-c4ccccc4)nc23)s1 [Compound 81] | < 1000 nM and 51 to 450 nM | – | –
23 | N#Cc1cnc2ccsc2c1NCCc1cnc(NC(=O)Nc2cccc(Cl)c2)s1 [Compound 190, 1-(3-chlorophenyl)-3-(5-(2-(6-cyanothieno[3,2-b]pyridin-7-ylamino)ethyl)thiazol-2-yl)urea] | < 1000 nM and 51 to 450 nM | – | –
24 | COc1cc2ncnc(NCCc3ccc(Nc4nc5ccccc5[nH]4)cc3)c2cc1OC [Compound 224] | 1 to 50 nM and < 1000 nM | – | 101 to 850
25 | O=C(Nc1ccccc1)Nc1ccc(CCNc2ncnc3cc(F)ccc23)cc1 [Compound 253] | 51 to 450 nM and < 1000 nM | – | < 100
26 | O=C(Nc1ccc(CCNc2ncnc3oc(-c4ccncc4)nc23)cc1)Nc1cccc(F)c1 [Compound 250] | 51 to 450 nM and < 1000 nM | – | 101 to 850
27 | O=C(Nc1ccccc1)Nc1ccc(CCNc2ncnc3oc(-c4ccncc4)nc23)cc1 [Compound 236] | 51 to 450 nM and < 1000 nM | – | 101 to 850

Row | SMILES | IC50 [1] | IC50 [2] [nM] | IC50 ([2]; 96-h incubation, MTS) [nM]
28 | COc1cc2ncnc(N(C)CCc3ccc(NC(=O)Nc4ccccc4)cc3)c2cc1OC [Compound 240] | 51 to 450 nM and < 1000 nM | – | < 100
29 | CCN(CCO)CCCOc1ccc2c(NCCc3ccc(NC(=O)Nc4ccccc4)cc3)ncnc2c1 [Compound 20] | < 1000 nM and 1 to 50 nM | – | < 100
30 | O=C(Nc1ccccc1)Nc1ccc(CCNc2ncnc3ccccc23)cc1 [Compound 249] | 1 to 50 nM and < 1000 nM | – | –
31 | O=C(Nc1ccccc1)Nc1ccc(CCNc2ncnc3oc(-c4ccccc4)nc23)cc1 [Compound 7, 1-Phenyl-3-{4-[2-(2-phenyl-oxazolo[5,4-d]pyrimidin-7-ylamino)-ethyl]-phenyl}-urea] | < 1000 nM and 51 to 450 nM | – | 101 to 850
32 | COc1cc2ncnc(OCCc3ccc(NC(=O)Nc4ccccc4)cc3)c2cc1OC [Compound 232] | 1 to 50 nM and < 1000 nM | – | 101 to 850
33 | O=C(Nc1cccc(F)c1)Nc1ncc(CCNc2ncnc3oc(-c4ccccc4)nc23)s1 [Compound 241] | 51 to 450 nM and < 1000 nM | – | –
34 | O=C(Nc1ccccc1)Nc1ccc(CCNc2ncnc3oc(-c4cccnc4)nc23)cc1 [Compound 222] | 51 to 450 nM and < 1000 nM | – | 101 to 850
35 | CN(C)c1ccc2c(NCCc3ccc(NC(=O)Nc4ccccc4)cc3)ncnc2c1 [Compound 233] | 51 to 450 nM and < 1000 nM | – | < 100
36 | COc1ccc2ncc(C#N)c(NCCc3ccc(NC(=O)Nc4ccccc4)cc3)c2c1 [Compound 231] | 51 to 450 nM and < 1000 nM | – | 101 to 850
37 | COc1cc2ncnc(NCCc3ccc(NC(=O)Nc4cccc(C(F)(F)F)c4)cc3)c2cc1OC [Compound 204] | 1 to 50 nM and < 1000 nM | – | 101 to 850
38 | O=C(Nc1ccccc1)Nc1ccc(CCNc2ncnc3oc(-c4ccc(O)cc4)nc23)cc1 [Compound 220] | 1 to 50 nM and < 1000 nM | – | 101 to 850
39 | O=C(Nc1ccccc1)Nc1ccc(CCNc2ncnc3cc(N4CCOCC4)ccc23)cc1 [Compound 251] | 1 to 50 nM and < 1000 nM | – | < 100
40 | COc1cccc(NC(=O)Nc2ccc(CCNc3ncnc4cc(OC)c(OC)cc34)cc2)c1 [Compound 205] | < 1000 nM and 51 to 450 nM | – | 101 to 850
41 | O=C(Nc1ccccc1)Nc1ccc(CCNc2ncnc3oc(-c4ccccn4)nc23)cc1 [Compound 237] | 1 to 50 nM and < 1000 nM | – | 101 to 850
42 | CN(C)Cc1ccccc1NC(=O)Nc1ccc(CCNc2ncnc3oc(-c4ccccc4)nc23)cc1 [Compound 72] | < 1000 nM and 51 to 450 nM | – | –
43 | COc1cc2ncnc(NCCc3ccc(NC(=O)Nc4cccc(F)c4)cc3)c2cc1OC [Compound 5, 1-{4-[2-(6,7-Dimethoxy-quinazolin-4-ylamino)-ethyl]-phenyl}-3-(3-fluoro-phenyl)-urea] | < 1000 nM and 51 to 450 nM | – | < 100
44 | COc1cc2ncnc(NCCc3ccc(NC(=O)Nc4ccc(F)c(F)c4)cc3)c2cc1OC [Compound 247] | 1 to 50 nM and < 1000 nM | – | 101 to 850
45 | CCN(CCO)CCCOc1ccc2c(NCCc3ccc(NC(=O)Nc4cccc(F)c4)cc3)ncnc2c1 [Compound 209] | 1 to 50 nM and < 1000 nM | – | –
46 | COc1ccc(-c2nc3c(NCCc4ccc(NC(=O)Nc5ccccc5)cc4)ncnc3o2)cc1 [Compound 206] | < 1000 nM and 51 to 450 nM | – | 101 to 850
47 | COc1cc2ncc(C#N)c(NCCc3ccc(NC(=O)Nc4ccccc4)cc3)c2cc1OC [Compound 140] | < 1000 nM and 51 to 450 nM | – | –
48 | COc1cc2ncnc(NCCc3ncc(NC(=O)Nc4ccccc4)s3)c2cc1OC [Compound 47] | < 1000 nM and 1 to 50 nM | – | 101 to 850
49 | COc1cc2ncnc(NCCc3ccc(NC(=O)Nc4ccccc4)cc3)c2cc1OC [Compound 201] | 1 to 50 nM and < 1000 nM | – | –
50 | CN(C)CCCOc1ccc2c(NCCc3ccc(NC(=O)Nc4cccc(F)c4)cc3)ncnc2c1 [Compound 208] | < 1000 nM and 51 to 450 nM | – | –
51 | COc1cc2ncnc(NCCc3ccc(NC(=O)NC4CC4)cc3)c2cc1OC [Compound 230] | < 1000 nM | – | –
52 | O=C(Nc1ccccc1)Nc1ccc(CCNc2ncnc3ccccc23)cc1 [Compound 248] | 51 to 450 nM and < 1000 nM | < 100 | –
53 | COc1cc2ncc(C#N)c(NCCc3ccc(NC(=O)NC4CC4)cc3)c2cc1OC [Compound 226] | 51 to 450 nM and < 1000 nM | – | –
